According to ChEMBL document CHEMBL1137368, “Antitumor activity of substituted E-3-(3,4,5-trimethoxybenzylidene)-1,3-dihydroindol-2-ones1” (2006):
Where a name gives a salt, the structure may show the parent alone.

Experiments:
Format in all cases: functional
Details in all cases: Homo sapiens; for TGI: read-out: pTGI (converted)
[1] = tested on: Panel renal (Carcinoma cell lines); experiment: Anticancer activity against renal cancer cell lines of NCI60 panel
[2] = tested on: NSCLC; experiment: Anticancer activity against NSCLC cancer cell lines of NCI60 panel
[3] = tested on: Panel prostate (Carcinoma cell lines); experiment: Anticancer activity against prostate cancer cell lines of NCI60 panel
[4] = tested on: Panel ovarian (Carcinoma cell lines); experiment: Anticancer activity against ovarian cancer cell lines of NCI60 panel
[5] = tested on: Panel CNS (Carcinoma cell lines); experiment: Anticancer activity against CNS cancer cell lines of NCI60 panel
[6] = tested on: Panel melanoma (Carcinoma cell lines); experiment: Anticancer activity against melanoma cancer cell lines of NCI60 panel
[7] = tested on: Panel colon (Carcinoma cell lines); experiment: Anticancer activity against colon cancer cell lines of NCI60 panel
[8] = tested on: Panel leukemia (Carcinoma cell lines); experiment: Anticancer activity against leukemia cancer cell lines of NCI60 panel
[9] = tested on: Panel breast (Carcinoma cell lines); experiment: Anticancer activity against breast cancer cell lines of NCI60 panel

COc1ccc2c(c1)/C(=C\c1cc(OC)c(OC)c(OC)c1)C(=O)N2
GI50 [1]: 0.575 µM | LC50 [1]: 91.2 µM | TGI [1]: 19.1 µM | GI50 [2]: 1.12 µM | TGI [2]: 58.9 µM | GI50 [3]: 0.692 µM | GI50 [4]: 0.676 µM | LC50 [4]: 41.7 µM | TGI [4]: 15.5 µM | GI50 [5]: 0.417 µM | LC50 [5]: 95.5 µM | TGI [5]: 12.6 µM | GI50 [6]: 0.891 µM | LC50 [6]: 95.5 µM | TGI [6]: 41.7 µM | GI50 [7]: 0.182 µM | LC50 [7]: 83.2 µM | TGI [7]: 32.4 µM | GI50 [8]: 0.0871 µM | TGI [8]: 11.2 µM | GI50 [9]: 0.398 µM | LC50 [9]: 50.1 µM | TGI [9]: 14.8 µM

COc1cc(/C=C2/C(=O)Nc3cccc(Cl)c32)cc(OC)c1OC
GI50 [1]: 61.7 µM | GI50 [2]: 75.9 µM | GI50 [4]: 89.1 µM | GI50 [5]: 61.7 µM | TGI [5]: 97.7 µM | GI50 [8]: 2.4 µM | TGI [8]: 16.2 µM | GI50 [9]: 85.1 µM

COc1cc2c(cc1C)NC(=O)/C2=C/c1cc(OC)c(OC)c(OC)c1
GI50 [1]: 55 µM | TGI [1]: 89.1 µM | GI50 [2]: 57.5 µM | TGI [2]: 81.3 µM | GI50 [4]: 75.9 µM | GI50 [5]: 41.7 µM | TGI [5]: 83.2 µM | GI50 [6]: 74.1 µM | GI50 [7]: 85.1 µM | GI50 [8]: 18.2 µM | TGI [8]: 52.5 µM | TGI [9]: 93.3 µM

COc1cc(/C=C2/C(=O)Nc3ccc(F)cc32)cc(OC)c1OC
GI50 [1]: 34.7 µM | GI50 [2]: 26.9 µM | TGI [2]: 91.2 µM | GI50 [3]: 27.5 µM | GI50 [4]: 44.7 µM | GI50 [5]: 33.1 µM | TGI [5]: 85.1 µM | GI50 [6]: 37.2 µM | GI50 [7]: 30.9 µM | GI50 [8]: 14.1 µM | GI50 [9]: 9.55 µM | TGI [9]: 87.1 µM

COc1cc(/C=C2/C(=O)Nc3ccc(O)cc32)cc(OC)c1OC
GI50 [1]: 14.1 µM | LC50 [1]: 83.2 µM | TGI [1]: 44.7 µM | GI50 [2]: 11.7 µM | LC50 [2]: 89.1 µM | TGI [2]: 40.7 µM | GI50 [3]: 2.4 µM | TGI [3]: 19.1 µM | GI50 [4]: 14.1 µM | LC50 [4]: 93.3 µM | TGI [4]: 47.9 µM | GI50 [5]: 8.71 µM | LC50 [5]: 91.2 µM | TGI [5]: 41.7 µM | GI50 [6]: 10 µM | LC50 [6]: 69.2 µM | TGI [6]: 27.5 µM | GI50 [7]: 12.3 µM | LC50 [7]: 83.2 µM | TGI [7]: 47.9 µM | GI50 [8]: 3.02 µM | TGI [8]: 30.9 µM | GI50 [9]: 9.12 µM | LC50 [9]: 97.7 µM | TGI [9]: 52.5 µM

COc1cc(/C=C2/C(=O)Nc3ccccc32)cc(OC)c1OC
GI50 [1]: 18.6 µM | TGI [1]: 75.9 µM | GI50 [2]: 18.6 µM | TGI [2]: 85.1 µM | GI50 [3]: 18.6 µM | GI50 [4]: 24.5 µM | TGI [4]: 95.5 µM | GI50 [5]: 12.3 µM | TGI [5]: 85.1 µM | GI50 [6]: 20 µM | TGI [6]: 81.3 µM | GI50 [7]: 15.1 µM | TGI [7]: 75.9 µM | GI50 [8]: 7.59 µM | TGI [8]: 87.1 µM | GI50 [9]: 19.1 µM | TGI [9]: 77.6 µM

COc1cc(/C=C2/C(=O)N(c3ccccc3)c3ccccc32)cc(OC)c1OC
GI50 [1]: 5.75 µM | LC50 [1]: 64.6 µM | TGI [1]: 23.4 µM | GI50 [2]: 9.33 µM | LC50 [2]: 83.2 µM | TGI [2]: 36.3 µM | GI50 [3]: 3.16 µM | TGI [3]: 16.2 µM | GI50 [4]: 10 µM | LC50 [4]: 83.2 µM | TGI [4]: 32.4 µM | GI50 [5]: 6.03 µM | LC50 [5]: 72.4 µM | TGI [5]: 30.9 µM | GI50 [6]: 7.41 µM | LC50 [6]: 52.5 µM | TGI [6]: 20.9 µM | GI50 [7]: 5.75 µM | LC50 [7]: 67.6 µM | TGI [7]: 26.9 µM | GI50 [8]: 2.29 µM | TGI [8]: 14.1 µM | GI50 [9]: 8.32 µM | TGI [9]: 53.7 µM

COc1cc(/C=C2/C(=O)Nc3ccc(Cl)cc32)cc(OC)c1OC
GI50 [1]: 15.8 µM | TGI [1]: 64.6 µM | GI50 [2]: 20.9 µM | TGI [2]: 74.1 µM | GI50 [3]: 2.95 µM | GI50 [4]: 17 µM | TGI [4]: 77.6 µM | GI50 [5]: 17.4 µM | TGI [5]: 56.2 µM | GI50 [6]: 28.2 µM | GI50 [7]: 8.32 µM | TGI [7]: 93.3 µM | GI50 [8]: 8.71 µM | GI50 [9]: 15.8 µM | TGI [9]: 56.2 µM

COc1cc(/C=C2/C(=O)N(C)c3ccccc32)cc(OC)c1OC
GI50 [1]: 12.3 µM | TGI [1]: 61.7 µM | GI50 [2]: 18.2 µM | TGI [2]: 67.6 µM | GI50 [3]: 10.5 µM | GI50 [4]: 18.2 µM | TGI [4]: 81.3 µM | GI50 [5]: 9.55 µM | TGI [5]: 81.3 µM | GI50 [6]: 17.4 µM | TGI [6]: 43.7 µM | GI50 [7]: 13.5 µM | TGI [7]: 61.7 µM | GI50 [8]: 7.24 µM | TGI [8]: 70.8 µM | GI50 [9]: 19.5 µM | TGI [9]: 77.6 µM

CC[C@]1(O)C[C@H]2CN(CCc3c([nH]c4ccccc34)[C@@](C(=O)OC)(c3cc4c(cc3OC)N(C=O)[C@H]3[C@@](O)(C(=O)OC)[C@H](OC(C)=O)[C@]5(CC)C=CCN6CC[C@]43[C@@H]65)C2)C1 [VINCRISTINE SULFATE]
GI50 [1]: 0.316 µM | TGI [1]: 20 µM | GI50 [2]: 0.251 µM | TGI [2]: 15.8 µM | GI50 [3]: 0.126 µM | TGI [3]: 6.31 µM | GI50 [4]: 0.316 µM | TGI [4]: 20 µM | GI50 [5]: 0.126 µM | TGI [5]: 6.31 µM | GI50 [6]: 0.158 µM | TGI [6]: 7.94 µM | GI50 [7]: 0.1 µM | TGI [7]: 3.98 µM | GI50 [8]: 0.1 µM | TGI [8]: 15.8 µM | GI50 [9]: 0.316 µM | TGI [9]: 7.94 µM
